“And” between values parts separate entries of the source, which are not always exact repeats. Equal values may be shown once. Results filed as inconclusive are left out. Where a SMILES comes first, the peptide text is derived from it. The star is where a group is joined. Trt = c1ccc(C(c2ccccc2)(c2ccccc2)*)cc1; Cbz = O=C(OCc1ccccc1)*; Bn = c1ccc(C*)cc1; βAla = NCCC(=O)O
System: BDF1 mice, colon carcinoma 38 sc, T/C %
Experiment: NCI In Vivo Anticancer Drug Screen. Data for tumor model Colon Carcinoma 38 (subcutaneous) in B6D2F1 (BDF1) mice
Details: endpoint: median tumor weight (est.), higher = larger tumour
Procedure, shortened: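 Mice with transplanted tumors are treated with compound or vehicle. Survival or tumor size is then measured in both groups. The ratio of treated to control gives the reported figure.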

[1] = dose: 25.0 mg/kg/injection, schedule: Q07DX002 (ip), vehicle: saline
[2] = dose: 50.0 mg/kg/injection, schedule: Q07DX002 (ip), vehicle: saline
[3] = dose: 100.0 mg/kg/injection, schedule: Q07DX002 (ip), vehicle: saline
[4] = dose: 200.0 mg/kg/injection, schedule: Q07DX002 (ip), vehicle: saline
[5] = dose: 400.0 mg/kg/injection, schedule: Q07DX002 (ip), vehicle: saline
[6] = dose: 25.0 mg/kg/injection, schedule: Q07DX002 (ip), vehicle: saline with Tween-80
[7] = dose: 50.0 mg/kg/injection, schedule: Q07DX002 (ip), vehicle: saline with Tween-80
[8] = dose: 100.0 mg/kg/injection, schedule: Q07DX002 (ip), vehicle: saline with Tween-80
[9] = dose: 200.0 mg/kg/injection, schedule: Q07DX002 (ip), vehicle: saline with Tween-80
[10] = dose: 50.0 mg/kg/injection, schedule: Q07DX002 (ip), vehicle: Klucel (hydroxypropylcellulose) (HPC)
[11] = dose: 100.0 mg/kg/injection, schedule: Q07DX002 (ip), vehicle: Klucel (hydroxypropylcellulose) (HPC)
[12] = dose: 200.0 mg/kg/injection, schedule: Q07DX002 (ip), vehicle: Klucel (hydroxypropylcellulose) (HPC)
[13] = dose: 400.0 mg/kg/injection, schedule: Q07DX002 (ip), vehicle: Klucel (hydroxypropylcellulose) (HPC)
[14] = dose: 12.5 mg/kg/injection, schedule: Q07DX002 (ip), vehicle: saline with Tween-80

SMILES: C[C@]12C=CC(=O)C=C1CC[C@@H]1[C@@H]2[C@@H](O)C[C@@]2(C)[C@H]1CC[C@]2(O)C(=O)CO
- T/C (dose: 40.0 mg/kg/injection, schedule: Q07DX003 (ip), vehicle: Klucel (hydroxypropylcellulose) (HPC)): 100 % of control
- T/C (dose: 80.0 mg/kg/injection, schedule: Q07DX003 (ip), vehicle: Klucel (hydroxypropylcellulose) (HPC)): 56 % of control
- T/C (dose: 160.0 mg/kg/injection, schedule: Q07DX003 (ip), vehicle: Klucel (hydroxypropylcellulose) (HPC)): 58 % of control
- T/C (dose: 320.0 mg/kg/injection, schedule: Q07DX003 (ip), vehicle: Klucel (hydroxypropylcellulose) (HPC)): 30 % of control
- T/C (dose: 640.0 mg/kg/injection, schedule: Q07DX003 (ip), vehicle: Klucel (hydroxypropylcellulose) (HPC)): 24 % of control

SMILES: CCOC(=O)C1=C(C#N)C2(CCC(OCc3ccccc3)CC2)C(=O)O1 (stereo not given)
- T/C [1]: 47 % of control
- T/C (dose: 25.0 mg/kg/injection, schedule: Q07DX002 (ip), vehicle: suspension in saline): 87 % of control
- T/C [2]: 53 % of control
- T/C [3]: 35 % of control
- T/C (dose: 100.0 mg/kg/injection, schedule: Q07DX002 (ip), vehicle: suspension in saline): 115 % of control
- T/C [4]: 73 % of control
- T/C [5]: 47 % of control
- T/C (dose: 400.0 mg/kg/injection, schedule: Q07DX002 (ip), vehicle: suspension in saline): 102 % of control
- T/C (dose: 800.0 mg/kg/injection, schedule: Q07DX002 (ip), vehicle: saline): 64 % of control
- T/C (dose: 800.0 mg/kg/injection, schedule: Q07DX002 (ip), vehicle: suspension in saline): 102 % of control

SMILES: Nc1n[n+](-c2ccccc2)no1
- T/C (dose: 3.12 mg/kg/injection, schedule: Q07DX002 (ip), vehicle: water): 99 % of control and 108 % of control
- T/C (dose: 6.25 mg/kg/injection, schedule: Q07DX002 (ip), vehicle: water): 85 % of control and 86 % of control and 98 % of control
- T/C (dose: 50.0 mg/kg/injection, schedule: Q07DX002 (ip), vehicle: water): 70 % of control and 74 % of control and 94 % of control

SMILES: Cc1ccc(NC(=O)Oc2ccc(Br)cc2Br)c([N+](=O)[O-])c1
- T/C [6]: 111 % of control and 102 % of control
- T/C [7]: 51 % of control and 62 % of control
- T/C [8]: 86 % of control and 94 % of control
- T/C [9]: 65 % of control and 79 % of control

SMILES: CN=C(N)N/N=C(\C)c1ccc2oc3ccc(/C(C)=N/NC(N)=NC)cc3c2c1
- T/C [6]: 117 % of control
- T/C [7]: 100 % of control
- T/C [8]: 66 % of control

SMILES: COC(=O)C(CSC(c1ccccc1)(c1ccccc1)c1ccccc1)NC(=O)C(CSCc1ccccc1)NC(=O)CCNC(=O)OCc1ccccc1 (stereo not given) ({Cbz-βAla}-Cys(Bn)-Cys(Trt)-OMe; configuration not given here)
- T/C (dose: 25.0 mg/kg/injection, schedule: Q07DX002 (ip), vehicle: Klucel (hydroxypropylcellulose) (HPC)): 106 % of control
- T/C [10]: 109 % of control
- T/C [11]: 96 % of control
- T/C [12]: 87 % of control
- T/C [13]: 123 % of control

SMILES: CC(=Nc1ccccc1)C1=C(O)C(Cc2ccccc2)NC1=O (stereo not given)
- T/C [14]: 86 % of control and 105 % of control
- T/C [8]: 45 % of control and 50 % of control
- T/C [9]: 70 % of control and 82 % of control

SMILES: Clc1ccc(CN2COc3c(ccc4cccnc34)C2)cc1Cl
- T/C [14]: 180 % of control
- T/C [6]: 171 % of control
- T/C [7]: 110 % of control
- T/C [8]: 206 % of control

SMILES: O=c1cc[nH]c(=O)o1
- T/C (dose: 12.2 mg/kg/injection, schedule: Q01DX009 (ip), vehicle: water): 119 % of control
- T/C (dose: 18.5 mg/kg/injection, schedule: Q01DX009 (ip), vehicle: water): 75 % of control
- T/C (dose: 28.0 mg/kg/injection, schedule: Q01DX009 (ip), vehicle: water): 83 % of control

SMILES: CS(C)=O
- T/C (dose: 1.5 grams/kg/injection, schedule: Q07DX003 (ip), vehicle: saline): 86 % of control
- T/C (dose: 6.0 grams/kg/injection, schedule: Q07DX003 (ip), vehicle: saline): 83 % of control and 103 % of control
- T/C (dose: 12.0 grams/kg/injection, schedule: Q07DX003 (ip), vehicle: saline): 171 % of control

SMILES: O=C(CC(=O)C(F)(F)F)c1csc2ccccc12
- T/C (dose: 12.5 mg/kg/injection, schedule: Q07DX002 (ip), vehicle: Klucel (hydroxypropylcellulose) (HPC)): 110 % of control and 90 % of control
- T/C [10]: 76 % of control
- T/C [12]: 62 % of control

SMILES: O=[Te]=O
- T/C [1]: 98 % of control
- T/C [2]: 93 % of control

SMILES: O=C(N[C@H](CO)[C@H](O)c1ccc([N+](=O)[O-])cc1)C(Cl)Cl
- T/C [8]: 60 % of control
- T/C (dose: 112.0 mg/kg/injection, schedule: Q07DX002 (ip), vehicle: saline with Tween-80): 72 % of control
- T/C [9]: 91 % of control
- T/C (dose: 225.0 mg/kg/injection, schedule: Q07DX002 (ip), vehicle: saline + Tween-80 + alcohol): 44 % of control
- T/C (dose: 225.0 mg/kg/injection, schedule: Q07DX002 (ip), vehicle: saline with Tween-80): 95 % of control
- T/C (dose: 400.0 mg/kg/injection, schedule: Q07DX002 (ip), vehicle: saline with Tween-80): 112 % of control
- T/C (dose: 450.0 mg/kg/injection, schedule: Q07DX002 (ip), vehicle: saline + Tween-80 + alcohol): 85 % of control
- T/C (dose: 450.0 mg/kg/injection, schedule: Q07DX002 (ip), vehicle: saline with Tween-80): 87 % of control and 94 % of control
- T/C (dose: 800.0 mg/kg/injection, schedule: Q07DX002 (ip), vehicle: saline with Tween-80): 68 % of control
- T/C (dose: 900.0 mg/kg/injection, schedule: Q07DX002 (ip), vehicle: saline + Tween-80 + alcohol): 41 % of control
- T/C (dose: 900.0 mg/kg/injection, schedule: Q07DX002 (ip), vehicle: saline with Tween-80): 118 % of control

SMILES: O=C1N(Cl)C(=O)C(c2ccc(Cl)cc2)(c2ccc(Cl)cc2)N1Cl
- T/C [6]: 87 % of control and 90 % of control and 100 % of control

SMILES: NC(=O)Oc1cccc(OC(N)=O)c1
- T/C (dose: 25.0 mg/kg/injection, schedule: Q07DX003 (ip), vehicle: other): 63 % of control
- T/C (dose: 50.0 mg/kg/injection, schedule: Q07DX003 (ip), vehicle: other): 103 % of control
- T/C (dose: 100.0 mg/kg/injection, schedule: Q07DX003 (ip), vehicle: other): 51 % of control
- T/C (dose: 200.0 mg/kg/injection, schedule: Q07DX003 (ip), vehicle: other): 68 % of control
- T/C (dose: 400.0 mg/kg/injection, schedule: Q07DX003 (ip), vehicle: other): 75 % of control

SMILES: C1OC1C1CO1 (stereo not given)
- T/C (dose: 10.0 mg/kg/injection, schedule: Q07DX002 (ip), vehicle: saline): 99 % of control and 107 % of control
- T/C (dose: 20.0 mg/kg/injection, schedule: Q07DX002 (ip), vehicle: saline): 119 % of control and 120 % of control
- T/C (dose: 40.0 mg/kg/injection, schedule: Q07DX002 (ip), vehicle: saline): 96 % of control

SMILES: NC1=NC(=O)N2CC12 (stereo not given)
- T/C [1]: 81 % of control
- T/C [2]: 82 % of control and 83 % of control
- T/C [3]: 81 % of control and 104 % of control
- T/C [4]: 66 % of control and 70 % of control
- T/C [5]: 79 % of control

SMILES: O=c1[nH]cnc2c1ccn2C1OC(CO)C(O)C1O (stereo not given)
- T/C (dose: 1.5 mg/kg/injection, schedule: Q07DX002 (ip), vehicle: saline): 88 % of control
- T/C (dose: 3.0 mg/kg/injection, schedule: Q07DX002 (ip), vehicle: saline): 118 % of control
- T/C (dose: 6.0 mg/kg/injection, schedule: Q07DX002 (ip), vehicle: saline): 100 % of control
- T/C (dose: 12.0 mg/kg/injection, schedule: Q07DX002 (ip), vehicle: saline): 86 % of control
- T/C (dose: 24.0 mg/kg/injection, schedule: Q07DX002 (ip), vehicle: saline): 63 % of control

SMILES: C=CC(=O)N1CN(C(=O)C=C)CN(C(=O)C=C)C1
- T/C (dose: 1.56 mg/kg/injection, schedule: Q07DX002 (ip), vehicle: saline with Tween-80): 82 % of control
- T/C (dose: 1.56 mg/kg/injection, schedule: Q07DX002 (ip), vehicle: saline): 74 % of control
- T/C (dose: 3.12 mg/kg/injection, schedule: Q07DX002 (ip), vehicle: saline with Tween-80): 85 % of control
- T/C (dose: 3.12 mg/kg/injection, schedule: Q07DX002 (ip), vehicle: saline): 110 % of control
- T/C (dose: 6.25 mg/kg/injection, schedule: Q07DX002 (ip), vehicle: saline with Tween-80): 104 % of control
- T/C (dose: 6.25 mg/kg/injection, schedule: Q07DX002 (ip), vehicle: saline): 90 % of control
- T/C [14]: 120 % of control

SMILES: CC1C=NNC1=O (stereo not given)
- T/C [10]: 84 % of control
- T/C [11]: 91 % of control and 96 % of control
- T/C [12]: 97 % of control and 98 % of control
- T/C [13]: 76 % of control

SMILES: C/C=C/c1cc2n(c1)C(=O)c1cc(OC3OC(C)C(NC)C(C)(O)C3O)c(C)c(O)c1NC2O (stereo not given)
- T/C (dose: 32.0 micrograms/kg/injection, schedule: Q07DX002 (ip), vehicle: saline): 42 % of control
